Results: patent publication US20090285773A1, “Hepatitis C Virus Inhibitors” (Bristol-Myers Squibb Company, priority 2008, published 2009)

Biological target: T1, HCV NS3/4A protease complex, J4L6S strain (1b genotype) (Hepatitis C virus genotype 1b, UniProt O92972, C1454S/C1711G)
T1 construct: DNA encoding the recombinant HCV NS3/4A protease complex (amino acids 1027 to 1711) for these strains; His tag (inferred from pET21b vector and Ni-NTA purification); made in house; host or cells: Escherichia coli BL21 (DE3)
Assay: FRET peptide assay, HCV NS3/4A protease complex, J4L6S strain
Assay type: biochemical
Text: HCV NS3 protease complexes, derived from the BMS strain, H77 strain or J4L6S strain, were generated, as described below. These purified recombinant proteins were generated for use in a homogeneous assay (see below) to provide an indication of how effective compounds of the present disclosure would be in inhibiting HCV NS3 proteolytic activity.
Serum from an HCV-infected patient was obtained from Dr. T. Wright, San Francisco Hospital. An engineered full-length cDNA (compliment deoxyribonucleic acid) template of the HCV genome (BMS strain) was constructed from DNA fragments obtained by reverse transcription-PCR (RT-PCR) of serum RNA (ribonucleic acid) and using primers selected on the basis of homology between other genotype 1a strains. From the determination of the entire genome sequence, a genotype 1a was assigned to the HCV isolate according to the classification of Simmonds et al. (See P Simmonds, K A Rose, S Graham, S W Chan, F McOmish, B C Dow, E A Follett, P L Yap and H Marsden, J. Clin. Microbiol., 31(6), 1493-1503 (1993)). […]

T1 sequence (O92972 1027-1711 C1454S/C1711G, one chain of several): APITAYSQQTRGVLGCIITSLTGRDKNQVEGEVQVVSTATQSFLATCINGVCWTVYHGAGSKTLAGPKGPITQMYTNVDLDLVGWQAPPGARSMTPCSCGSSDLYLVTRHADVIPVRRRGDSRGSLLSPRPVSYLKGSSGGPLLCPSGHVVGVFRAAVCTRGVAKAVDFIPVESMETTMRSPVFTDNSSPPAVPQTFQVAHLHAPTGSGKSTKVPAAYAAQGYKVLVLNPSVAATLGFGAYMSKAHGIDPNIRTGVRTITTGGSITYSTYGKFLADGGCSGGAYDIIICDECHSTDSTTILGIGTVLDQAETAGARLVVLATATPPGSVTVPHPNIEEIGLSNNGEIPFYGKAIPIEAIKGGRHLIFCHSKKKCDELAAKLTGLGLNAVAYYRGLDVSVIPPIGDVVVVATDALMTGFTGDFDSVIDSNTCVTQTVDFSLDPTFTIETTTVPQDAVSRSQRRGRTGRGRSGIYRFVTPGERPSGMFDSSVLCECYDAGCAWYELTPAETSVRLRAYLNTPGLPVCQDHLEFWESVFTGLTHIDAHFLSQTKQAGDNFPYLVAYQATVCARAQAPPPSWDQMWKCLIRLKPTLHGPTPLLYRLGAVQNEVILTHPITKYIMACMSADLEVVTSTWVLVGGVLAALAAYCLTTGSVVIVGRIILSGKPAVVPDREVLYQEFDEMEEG

SMILES: COc1ccc2c(O[C@@H]3C[C@H]4C(=O)N[C@]5(C(=O)NS(=O)(=O)C6CC6)C[C@H]5/C=C\CCCCC[C@H](Nc5ccc(OC)nc5)C(=O)N4C3)nccc2c1 (single isomer, unassigned) [Compound 1]
- IC50: 1.2 nM
